Here are results for eight compounds from ChEMBL document CHEMBL1135073, “Solution and solid-phase synthesis of potent inhibitors of hepatitis C virus NS3 proteinase” (Bioorg Med Chem Lett, 2002).

One may read the IC50 as the concentration that inhibits the measured activity by half. A lower IC50 goes with greater potency.

Each structure is given as a SMILES string. *1 amine or outer side, *2 acyl side, *3 side chain or, on linkers, in order; H or OH if unused. Where a SMILES comes first, the peptide text is derived from it. [ ]: non-standard residue; d: D form. The star is where a group is joined. Nleψ(COCO) = CCCC[C@H](N[*:1])C(=O)C(=O)[*:2]; Acetyl(2-naphthyl) = O=C(Cc1ccc2ccccc2c1)*; NH(1S-phenylpropyl) = CC[C@H](N*)c1ccccc1; Phe(2-Me) = Cc1ccccc1C[C@H](N)C(=O)O; NleCONH2 = CCCC[C@H](N*)C(=O)C(N)=O; 3Thi = N[C@@H](Cc1ccsc1)C(=O)O; Phg = N[C@H](C(=O)O)c1ccccc1; Suc = O=C(CCC(=O)[*:2])[*:1]; Tle = CC(C)(C)[C@H](N)C(=O)O; Bn = c1ccc(C*)cc1

The target of this experiment is NS3 (Hepatitis C virus, UniProt A3EZJ3). Nature of the experiment: Inhibitory concentration against Hepatitis C virus NS3 proteinase. Details: species or system Hepacivirus hominis.
NS3, sequence (A3EZJ3 whole entry): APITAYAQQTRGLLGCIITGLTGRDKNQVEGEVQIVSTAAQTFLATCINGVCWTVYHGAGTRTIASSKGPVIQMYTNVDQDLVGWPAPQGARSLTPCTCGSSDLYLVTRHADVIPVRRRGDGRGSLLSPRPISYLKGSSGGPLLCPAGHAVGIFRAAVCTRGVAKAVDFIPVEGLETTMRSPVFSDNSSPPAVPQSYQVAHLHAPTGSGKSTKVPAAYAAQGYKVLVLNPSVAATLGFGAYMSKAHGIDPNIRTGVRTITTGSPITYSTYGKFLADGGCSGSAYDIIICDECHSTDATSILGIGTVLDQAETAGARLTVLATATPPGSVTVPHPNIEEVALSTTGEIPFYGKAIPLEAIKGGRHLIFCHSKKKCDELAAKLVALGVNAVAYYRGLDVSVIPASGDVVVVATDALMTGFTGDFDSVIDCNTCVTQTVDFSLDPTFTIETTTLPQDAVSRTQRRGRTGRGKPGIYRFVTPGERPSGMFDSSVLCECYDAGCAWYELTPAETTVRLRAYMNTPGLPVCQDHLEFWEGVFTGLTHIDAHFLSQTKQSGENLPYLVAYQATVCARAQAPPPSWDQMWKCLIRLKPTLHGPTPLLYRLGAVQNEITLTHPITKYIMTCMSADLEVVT

The compound `CCCC[C@H](NC(=O)[C@H](CC(C)C)NC(=O)[C@@H](NC(=O)[C@H](Cc1ccc(OCc2ccccc2)cc1)NC(=O)[C@H](CCC(=O)O)NC(=O)[C@H](CC(=O)O)NC(=O)CCC(=O)O)C(C)(C)C)C(=O)C(N)=O` (Suc-DEY(Bn)[Tle]L-NleCONH2) yielded an IC50 of 110 nM.
`CCCC[C@H](NC(=O)[C@H](CC(C)C)NC(=O)[C@@H](NC(=O)[C@H](Cc1ccccc1C)NC(=O)[C@H](CCC(=O)O)NC(=O)[C@H](CC(=O)O)NC(=O)CCC(=O)O)c1ccccc1)C(=O)C(N)=O` (Suc-DE[Phe(2-Me)][Phg]L-NleCONH2) showed an IC50 of 42 nM. This IC50 lies about 2.6-fold lower than the previous one.
Consider `CCCC[C@H](NC(=O)[C@H](CC(C)C)NC(=O)[C@@H](NC(=O)[C@H](Cc1ccccc1C)NC(=O)[C@H](CCC(=O)O)NC(=O)[C@H](CC(=O)O)NC(=O)CCC(=O)O)C(C)(C)C)C(=O)C(=O)N[C@@H](CC)c1ccccc1` (Suc-DE[Phe(2-Me)][Tle]L[Nleψ(COCO)]-{NH(1S-phenylpropyl)}), for which the IC50 amounted to 11 nM. This IC50 lies about 3.8-fold lower than the previous one.
Then `CCCC[C@H](NC(=O)[C@H](Cc1ccsc1)NC(=O)[C@@H](NC(=O)[C@H](Cc1ccccc1C)NC(=O)[C@H](CCC(=O)O)NC(=O)[C@H](CC(=O)O)NC(=O)CCC(=O)O)C(C)(C)C)C(=O)C(N)=O` (Suc-DE[Phe(2-Me)][Tle][3Thi]-NleCONH2), with 130 nM.
Take `CCCC[C@H](NC(=O)[C@H](CC(C)C)NC(=O)[C@@H](NC(=O)[C@H](Cc1ccccc1C)NC(=O)[C@H](COCc1ccccc1)NC(=O)[C@H](CC(=O)O)NC(=O)CCC(=O)O)C(C)(C)C)C(=O)C(N)=O` (Suc-DS(Bn)[Phe(2-Me)][Tle]L-NleCONH2): the IC50 is 29 nM.
As for `CCCC[C@H](NC(=O)[C@H](CC(C)C)NC(=O)[C@@H](NC(=O)[C@H](Cc1ccccc1C)NC(=O)[C@@H](NC(=O)[C@H](CC(=O)O)NC(=O)CCC(=O)O)C(C)C)C(C)(C)C)C(=O)C(N)=O` (Suc-DV[Phe(2-Me)][Tle]L-NleCONH2), 20 nM corresponded to half-maximal inhibition (IC50).
Then `CCCC[C@H](NC(=O)[C@H](CC(C)C)NC(=O)[C@@H](NC(=O)[C@H](Cc1ccccc1C)NC(=O)[C@H](CCC(=O)O)NC(=O)[C@H](Cc1c[nH]c2ccccc12)NC(=O)CCC(=O)O)C(C)(C)C)C(=O)C(N)=O` (Suc-WE[Phe(2-Me)][Tle]L-NleCONH2), with 41 nM.
Then `CCCC[C@H](NC(=O)[C@H](CC(C)C)NC(=O)[C@@H](NC(=O)[C@H](Cc1ccccc1C)NC(=O)[C@H](CCC(=O)O)NC(=O)[C@H](CC(=O)O)NC(=O)Cc1ccc2ccccc2c1)C(C)(C)C)C(=O)C(N)=O` ({Acetyl(2-naphthyl)}-DE[Phe(2-Me)][Tle]L-NleCONH2), with 90 nM.
